Experimental data as given in US9302992B2, “Multifunctional quinoline derivatives as anti-neurodegenerative agents” (ANNJI PHARMACEUTICAL CO., LTD., priority 2013, dated 2016).

Tests used:
mice = assay: Animal model: memory and toxicity in mice; assay type: in vivo; details: 1 to 100 mg/kg, preferable 1 to 10 mg/kg, i.p. daily; for toxicity: mice
[1] = test system: undifferentiated PC12 cells; assay: Neurite outgrowth on undifferentiated PC12 cells; assay type: cell-based; details: FIG. 4
fAβ-lesioned mice = assay: Rotarod test in fAβ-lesioned mice; assay type: in vivo; details: FIG. 6; for riding time in rotarod test: 10 mg/kg, fAβ-lesioned mice; for performance of learning: fAβ-induced memory-deficit mice
preformed Aβ aggregates = preformed Aβ aggregates (Homo sapiens, UniProt P05067); assay: Dissolution of preformed Aβ aggregates; assay type: biochemical; details: FIG. 1B and FIG. 2
preformed Aβ aggregates, sequence (P05067 672-711 limits assumed): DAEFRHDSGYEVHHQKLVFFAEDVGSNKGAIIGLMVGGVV

[2] = test system: memory-deficit fAβ-lesioned mice; assay: GAP43 level and fAβ level in memory-deficit fAβ-lesioned mice; assay type: in vivo; details: FIG. 8
Aβ = Aβ (Homo sapiens, UniProt P05067); assay: Aβ aggregation / fAβ formation, microscopy analysis after Congo red staining; assay type: biochemical
Aβ, sequence (P05067 672-711 limits assumed): as above

[3] = test system: memory-deficit fAβ-lesioned mice; assay: Morris water maze test in memory-deficit fAβ-lesioned mice; assay type: in vivo; details: FIGS. 7A-D
Method: FIGS. 7A-D show the results of Morris water maze test.
(§1) Only compound C12 was effective toward zinc-free aggregates (FIG. 3B). […] Mice were assessed for the total duration of movement (FIG. 7A) and total duration of distance (FIG. 7B) to climb onto the hidden platform; and also quantified the appearance to target zone (FIG. 7C) indicating the relative time (compared to total time in swimming) to entry into a zone around the hidden platform; and for average swimming velocity (FIG. 7D) to discriminate enhanced memory from enhanced motor activity.

neuron cells = assay: Neuroprotection of neuron cells against fAβ; assay type: cell-based; details: for protection of neuron cells from zinc-induced fAβ: FIGS. 3A-B
Method: FIGS. 3A-B show compound C12 acting as a neuroprotective agent targeting fAβ.
as §1

| Structure (SMILES) | memory of mice (mice) | toxicity (mice) | neurite outgrowth [1] | riding time in rotarod test (fAβ-lesioned mice) | performance of learning (fAβ-lesioned mice) | protection of neuron cells from zinc-induced fAβ (neuron cells) | further results |
| --- | --- | --- | --- | --- | --- | --- | --- |
| OCCCCCCCCCCCc1ccc2cccc(O)c2n1 [B3, 2-(11-hydroxyundecyl)quinolin-8-ol] | improve memory of mice | without causing significant toxicity | induction of neurite outgrowth | increased riding time | improved performance of learning |  |  |
| COc1cccc2ccc(CCCCCCCCCCCO)nc12 [C3, 11-(8-methoxyquinolin-2-yl)undecan-1-ol] |  |  | induction of neurite outgrowth |  |  |  |  |
| COc1ccc(Cl)c2ccc(CCCCCCCCCCCO)nc12 [C12, 11-(5-chloro-8-methoxyquinolin-2-yl)undecan-1-ol] | improve memory of mice | without causing significant toxicity |  | increased riding time | improved performance of learning | protected | dissolution of preformed Aβ aggregates (preformed Aβ aggregates): dissolved preformed Aβ aggregates; GAP43 level [2]: increase in GAP43 level; fAβ level [2]: decrease in fAβ level; polymerization of Aβ (Aβ; in the absence of zinc ions, FIG. 2): inhibiting polymerization of Aβ; Aβ aggregation (Aβ; in the presence or absence of zinc ions, Congo red staining, FIG. 1A): inhibited Aβ aggregation; learning in the Morris water maze test [3]: improved learning; effectiveness toward zinc-free aggregates (neuron cells; zinc-free aggregates, FIG. 3B): effective |
| Oc1c(I)cc(Cl)c2cccnc12 [CQ, reference compound] |  |  |  |  |  | protected |  |
| CCOc1cccc2ccc(CCCCCCCCCCCO)nc12 [D3, 11-(8-ethoxyquinolin-2-yl)undecan-1-ol] |  |  | induction of neurite outgrowth |  |  |  |  |
